This is an account of results in patent publication US20230062100A1, “SUBSTITUTED AMINOQUINOLONES AS DGKALPHA INHIBITORS FOR IMMUNE ACTIVATION” (Bayer Aktiengesellschaft, priority 2019, published 2023).

A word on the IC50: it is the concentration that gives 50% inhibition. Higher therefore signals weaker potency in that assay.

DGKα, sequence (P23743 with tags, fused parts or gaps): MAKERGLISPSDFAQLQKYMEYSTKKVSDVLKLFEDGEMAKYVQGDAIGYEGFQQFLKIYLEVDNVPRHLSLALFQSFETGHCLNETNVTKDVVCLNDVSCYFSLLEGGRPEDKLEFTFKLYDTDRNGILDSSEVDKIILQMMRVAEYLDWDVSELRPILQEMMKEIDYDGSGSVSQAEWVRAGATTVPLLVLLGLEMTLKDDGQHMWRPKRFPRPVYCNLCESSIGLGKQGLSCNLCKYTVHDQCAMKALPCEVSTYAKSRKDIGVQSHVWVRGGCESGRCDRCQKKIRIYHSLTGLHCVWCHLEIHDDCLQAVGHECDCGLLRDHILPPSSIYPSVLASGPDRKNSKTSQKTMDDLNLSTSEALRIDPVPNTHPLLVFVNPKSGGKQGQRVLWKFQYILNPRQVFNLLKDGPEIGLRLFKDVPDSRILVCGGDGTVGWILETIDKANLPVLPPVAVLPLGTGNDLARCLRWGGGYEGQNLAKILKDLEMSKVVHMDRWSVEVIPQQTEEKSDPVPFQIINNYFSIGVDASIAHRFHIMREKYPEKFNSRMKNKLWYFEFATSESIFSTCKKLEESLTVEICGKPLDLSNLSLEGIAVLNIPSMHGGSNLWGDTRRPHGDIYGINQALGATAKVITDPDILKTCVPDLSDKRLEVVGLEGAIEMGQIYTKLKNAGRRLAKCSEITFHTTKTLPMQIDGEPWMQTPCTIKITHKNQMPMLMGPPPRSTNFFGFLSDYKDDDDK

For the test, the target named is DGKα (Homo sapiens, UniProt P23743). Nature of the test: Human DGKα kinase activity inhibition assay (ADP-Glo). Format: biochemical. To be noted: in vitro human DGKα kinase activity inhibition assay. The method, then:
Human DGKα inhibitory activity of compounds of the present invention was quantified employing the human DGKα kinase activity assay as described in the following paragraphs. In essence, the enzyme activity was measured by quantification of the adenosine-di-phosphate (ADP) generated as a co-product of the enzyme reaction via the “ADP-Glo™ Kinase Assay” kit from the company Promega. This detection system works as follows: In a first step the ATP not consumed in the kinase reaction is quantitatively converted to cAMP employing an adenylate cyclase (“ADP-Glo-reagent”), then the adenylate cyclase is stopped and the ADP generated in the kinase reaction converted to ATP, which subsequently generates in a luciferase-based reaction a glow-luminescence signal (“Kinase Detection Reagent”). C-terminally FLAG-tagged, recombinant full-length human DGKα (expressed in baculovirus infected insect cells, purified using anti-Flag pulldown and size exclusion chromatography as described below, DGKα_hu_1) was used as enzyme. As substrate for the kinase 1,2-dioleoyl-sn-glycerol, reconstituted in octyl-β-D-glucopyranoside micelles, was used. For the preparation of the micelles, 1 volume of a 16.1 mM solution of 1,2-dioleoyl-sn-glycerol (Avanti, Cat. #O8001-25G) in chloroform was slowly evaporated using a nitrogen stream. Subsequently, 22.55 volumes of a 510 mM solution of octyl-β-D-glucopyranoside (Sigma-Aldrich, Cat. #O8001-10G) in 50 mM MOPS buffer (pH 7.4) were added, and the mixture was sonicated in an ultrasonic bath for 20 s. Then 35 volumes of 50 mM MOPS buffer (pH 7.4) were added to yield a solution of 0.28 mM 1,2 dioleoyl-sn-glycerol and 200 mM octyl-β-D-glucopyranoside, which was aliquoted, flash-frozen in liquid nitrogen, and stored at −20° C. until use. For each experiment, a fresh aliquot was quickly thawed and diluted 24-fold with aqueous assay buffer (described below) containing 95.7 μM adenosine triphosphate (Promega) to yield a 1.67-fold concentrated substrate solution. For the assay 50 nl of a 100-fold concentrated solution of the test compound in dimethyl sulfoxide (DMSO, Sigma) was pipetted into either a white 1536-well or a white low-volume 384-well microtiter plate (both Greiner Bio-One, Frickenhausen, Germany). […] The concentration of DGK a was adjusted depending of the activity of the enzyme lot and was chosen appropriate to have the assay in the linear range, a typical concentration is about 0.1 nM. The reaction was stopped by the addition of 2.5 μl of “ADP-Glo-reagent” (1 to 1.5 diluted with water) and the resulting mixture was incubated at 22° C. for 1 h to convert the ATP not consumed in the kinase reaction completely to cAMP. […] The amount of emitted light was taken as a measure for the amount of ADP generated and thereby for the activity of the DGKα.
(ADP-Glo first removes unused ATP, then detects ADP through luciferase.)
Turning to `Cn1c(=O)c(C#N)c(N2CCC(Oc3ccc(N4CCCC4=O)cc3)CC2)c2ccccc21` [Example 18, 1-methyl-2-oxo-4-{4-[4-(2-oxopyrrolidin-1-yl)phenoxy]piperidin-1-yl}-1,2-dihydroquinoline-3-carbonitrile], half-maximal inhibition (IC50) required 0.055 µM. This counts as double-digit nanomolar. In turn, `COc1cccc(COC2CCN(c3c(C(N)=O)c(=O)n(C)c4ccccc34)CC2)c1` [Example 125, 4-{4-[(3-methoxyphenyl)methoxy]piperidin-1-yl}-1-methyl-2-oxo-1,2-dihydroquinoline-3-carboxamide] came in with an IC50 of 0.043 µM.

`Cn1c(=O)c(C#N)c(N2CCC(Oc3ccc(OC(F)(F)F)cc3)CC2)c2cccc(Cl)c21` [Example 131, 8-chloro-1-methyl-2-oxo-4-{4-[4-(trifluoromethoxy)phenoxy]piperidin-1-yl}-1,2-dihydroquinoline-3-carbonitrile] returned an IC50 of 0.018 µM. The compound `Cn1c(=O)c(C#N)c(N2CCC(Oc3ccc(F)cc3)CC2)c2cc(C#N)ccc21` [Example 146, 4-[4-(4-fluorophenoxy)piperidin-1-yl]-1-methyl-2-oxo-1,2-dihydroquinoline-3,6-dicarbonitrile] displayed an IC50 of 0.017 µM. The same measure for `Cn1c(=O)c(C#N)c(N2CCC(Sc3ccccc3)CC2)c2ccc(C3CC3)cc21` [Example 68, 7-cyclopropyl-1-methyl-2-oxo-4-[4-(phenylsulfanyl)piperidin-1-yl]-1,2-dihydroquinoline-3-carbonitrile]: 0.029 µM. As to `Cn1c(=O)c(C#N)c(N2CCC(Oc3cccc(OC(F)(F)F)c3)CC2)c2ccc(C3COC3)cc21` [Example 77, 1-methyl-7-(oxetan-3-yl)-2-oxo-4-{4-[3-(trifluoromethoxy)phenoxy]piperidin-1-yl}-1,2-dihydroquinoline-3-carbonitrile], 0.017 µM corresponded to half-maximal inhibition (IC50). The same measure for `Cc1cccc(COC2CCN(c3c(C(N)=O)c(=O)n(C)c4ccccc34)CC2)c1` [Example 123, 1-methyl-4-{4-[(3-methylphenyl)methoxy]piperidin-1-yl}-2-oxo-1,2-dihydroquinoline-3-carboxamide]: 0.014 µM.

For the compound `COc1ccc(OC2CCN(c3c(C#N)c(=O)n(C)c4ccccc34)CC2)cc1` [Example 46, 4-[4-(4-methoxyphenoxy)piperidin-1-yl]-1-methyl-2-oxo-1,2-dihydroquinoline-3-carbonitrile], the IC50 was determined as 0.032 µM. The same measure for `Cn1c(=O)c(C#N)c(N2CCC(Sc3ccccc3)CC2)c2ccc(N3CCCC3=O)cc21` [Example 83, 1-methyl-2-oxo-7-(2-oxopyrrolidin-1-yl)-4-[4-(phenylsulfanyl)piperidin-1-yl]-1,2-dihydroquinoline-3-carbonitrile]: 0.014 µM; for `Cn1c(=O)c(C#N)c(N2CCC(OCc3ccccc3F)CC2)c2ccccc21` [Example 111, 4-{4-[(2-fluorophenyl)methoxy]piperidin-1-yl}-1-methyl-2-oxo-1,2-dihydroquinoline-3-carbonitrile]: 0.0048 µM.

`Cn1c(=O)c(C#N)c(N2CCC(Oc3ccc(-n4cncn4)cc3)CC2)c2ccccc21` [Example 17, 1-methyl-2-oxo-4-{4-[4-(1H-1,2,4-triazol-1-yl)phenoxy]piperidin-1-yl}-1,2-dihydroquinoline-3-carbonitrile] gave a half-maximal inhibitory concentration (IC50) of 0.045 µM. For `Cn1c(=O)c(C#N)c(N2CCC(Oc3ccc(OC(F)(F)F)cc3)CC2)c2cccc(N=S(C)(C)=O)c21` [Example 134, 8-{[dimethyl(oxo)-λ^6-sulfanylidene]amino}-1-methyl-2-oxo-4-{4-[4-(trifluoromethoxy)phenoxy]piperidin-1-yl}-1,2-dihydroquinoline-3-carbonitrile], inhibition was half-maximal at 0.037 µM (IC50). `Cn1c(=O)c(C#N)c(N2CCC(Oc3ccc(F)cc3)CC2)c2cc(C3CC3)ccc21` [Example 148, 6-cyclopropyl-4-[4-(4-fluorophenoxy)piperidin-1-yl]-1-methyl-2-oxo-1,2-dihydroquinoline-3-carbonitrile] yielded an IC50 of 0.073 µM. `Cc1ccc(COC2CCN(c3c(C(N)=O)c(=O)n(C)c4ccccc34)CC2)cc1` [Example 122, 1-methyl-4-{4-[(4-methylphenyl)methoxy]piperidin-1-yl}-2-oxo-1,2-dihydroquinoline-3-carboxamide] showed an IC50 of 0.0071 µM. The compound `CC(C)Oc1ccc(OC2CCN(c3c(C#N)c(=O)n(C)c4ccccc34)CC2)cc1` [Example 47, 1-methyl-2-oxo-4-(4-{4-[(propan-2-yl)oxy]phenoxy}piperidin-1-yl)-1,2-dihydroquinoline-3-carbonitrile] yielded an IC50 of 0.0086 µM. The same measure for `Cn1c(=O)c(C#N)c(N2CCCC(Oc3ccc(OC(F)(F)F)cc3)CC2)c2ccccc21` (single isomer, unassigned; enantiomer 2) [Example 102, 1-methyl-2-oxo-4-{4-[4-(trifluoromethoxy)phenoxy]azepan-1-yl}-1,2-dihydroquinoline-3-carbonitrile, enantiomer 2]: 0.018 µM.

In turn, `Cc1ccc2c(c1)c(N1CCC(Sc3ccccc3)CC1)c(C#N)c(=O)n2C` [Example 142, 1,6-dimethyl-2-oxo-4-[4-(phenylsulfanyl)piperidin-1-yl]-1,2-dihydroquinoline-3-carbonitrile] returned a concentration for half-maximal inhibition (IC50) of 0.002 µM. In the case of `Cn1c(=O)c(C#N)c(N2CCC(Oc3ccc(OC(F)F)cc3)CC2)c2ccccc21` [Example 39, 4-{4-[4-(difluoromethoxy)phenoxy]piperidin-1-yl}-1-methyl-2-oxo-1,2-dihydroquinoline-3-carbonitrile], the IC50 was found to be 0.004 µM. Next, `Cc1ccc2c(c1)c(N1CCC(Oc3ccccc3Cl)CC1)c(C#N)c(=O)n2C` [Example 151, 4-[4-(2-chlorophenoxy)piperidin-1-yl]-1,6-dimethyl-2-oxo-1,2-dihydroquinoline-3-carbonitrile]: 0.06 µM; `Cn1c(=O)c(C#N)c(N2CCC(Oc3ccc(N4CCOCC4)cc3)CC2)c2ccccc21` [Example 20, 1-methyl-4-{4-[4-(morpholin-4-yl)phenoxy]piperidin-1-yl}-2-oxo-1,2-dihydroquinoline-3-carbonitrile]: 0.081 µM; `Cn1c(=O)c(C(N)=O)c(N2CCC(Oc3cccc(Cl)c3)CC2)c2ccccc21` [Example 49, 4-[4-(3-chlorophenoxy)piperidin-1-yl]-1-methyl-2-oxo-1,2-dihydroquinoline-3-carboxamide]: 0.0017 µM. `Cn1c(=O)c(C#N)c(N2CCC(Oc3cccc(Cl)c3)CC2)c2ccc(Br)cc21` [Example 60, 7-bromo-4-[4-(3-chlorophenoxy)piperidin-1-yl]-1-methyl-2-oxo-1,2-dihydroquinoline-3-carbonitrile] returned an IC50 of 0.027 µM.

`Cc1ccc2c(c1)c(N1CCC(Oc3ccc(OC(F)(F)F)cc3)CC1)c(C(N)=O)c(=O)n2C` [Example 160, 1,6-dimethyl-2-oxo-4-{4-[4-(trifluoromethoxy)phenoxy]piperidin-1-yl}-1,2-dihydroquinoline-3-carboxamide] had an IC50 of 0.0031 µM.

Take `Cn1c(=O)c(C#N)c(N2CCC(Cc3nc4ccccc4s3)CC2)c2ccccc21` [Example 93, 4-{4-[(1,3-benzothiazol-2-yl)methyl]piperidin-1-yl}-1-methyl-2-oxo-1,2-dihydroquinoline-3-carbonitrile]: the IC50 turned out to be 0.039 µM. Compared with the last compound, the IC50 is about 13-fold higher. As to `Cc1ccc2c(c1)c(N1CCC(Oc3ccccc3Cl)CC1)c(C(N)=O)c(=O)n2C` [Example 163, 4-[4-(2-chlorophenoxy)piperidin-1-yl]-1,6-dimethyl-2-oxo-1,2-dihydroquinoline-3-carboxamide], the IC50 amounted to 0.059 µM. Regarding `Cn1c(=O)c(C#N)c(N2CCC(Sc3ccccc3)CC2)c2ccccc21` [Example 53, 1-methyl-2-oxo-4-[4-(phenylsulfanyl)piperidin-1-yl]-1,2-dihydroquinoline-3-carbonitrile], inhibition was half-maximal at 0.0011 µM (IC50). This IC50 lies about 54-fold lower than the previous one. `COCCOc1ccc2c(N3CCC(Oc4ccc(OC(F)(F)F)cc4)CC3)c(C#N)c(=O)n(C)c2c1` [Example 81, 7-(2-methoxyethoxy)-1-methyl-2-oxo-4-{4-[4-(trifluoromethoxy)phenoxy]piperidin-1-yl}-1,2-dihydroquinoline-3-carbonitrile] came in with an IC50 of 0.003 µM. Turning to `Cn1c(=O)c(C#N)c(N2CCC(Oc3ccc(-n4ccnc4)cc3)CC2)c2ccccc21` [Example 19, 4-{4-[4-(1H-imidazol-1-yl)phenoxy]piperidin-1-yl}-1-methyl-2-oxo-1,2-dihydroquinoline-3-carbonitrile], the IC50 was 0.064 µM.
